Reference: patent US20060281786A1, “Compounds having activity at 5ht2c receptor and uses thereof” (priority 2003, published 2006)

melting point: 227 to 229 °C
Compound: COc1cc2c3c(n(C)c2cc1Br)CN(c1ccc(OC)c(OCCN2CCCCC2)c1)C3=O.Cl
